Test results taken from patent US20240368163A1, “COMPOUNDS AND METHODS FOR MODULATING SPLICING” (REMIX THERAPEUTICS INC., priority 2021, published 2024).

Experiments:
Type in all cases: cell-based, human
SMN2 = test: Splicing RT-qPCR panel, SMN2 canonical junction (CJ) mRNA; details: Homo sapiens, RT-qPCR panel, canonical junction mRNA; compound concentration having 50% response in CJ decrease; read-out: SMN2 IC50 (decrease in CJ mRNA levels)
Method in brief: (§1)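 Cells: A673 (DMEM/10% FBS) or K562 (IMDM/10% FBS). Dose: 11-pt 3-fold, top 10 uM final, ≤0.25% DMSO, 24 h, 37 °C. Readout: RT-qPCR of CJ/AJ exon junctions, ΔΔCt vs housekeeper and DMSO, RQ to % response.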

Target C = test: HiBiT protein abundance assay, Target C; details: Homo sapiens, K562, 24 h, Table 13A, modified K562 cells
Method in brief: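 Target tagged with HiBiT by knock-in; 24 h dosing, 10 μM top final in 3-fold steps. IC50 from 4PL fit of normalized luminescence.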

MYB [1] = test: Splicing RT-qPCR assay, MYB mRNA canonical junction (CJ) and alternative junction (AJ); details: Homo sapiens; for AC50: increase in AJ mRNA
Method in brief: as §1

MYB [2] = test: HiBiT protein abundance assay, MYB; details: Homo sapiens, K562, 24 h, Table 13A, modified K562 cells
Method in brief: (§2)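 Tagged-target degradation assay: HiBiT-modified K562 cells treated 24 h with compound, 10 concentrations up to 10 μM final. Following lysis with LgBiT and substrate, luminescence gave normalized abundance; IC50 derived by logistic interpolation at 50%.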

HTT = test: HiBiT protein abundance assay, HTT; details: Homo sapiens, K562, 24 h, Table 13A, modified K562 cells
Method in brief: as §2

[3] = 24 h, decrease in CJ mRNA, A673 or K562 cells, 24 hours treatment, RT-qPCR, read-out: MYB CJ IC50
[4] = 24 h, A673 or K562 cells, 24 hours treatment, RT-qPCR
[5] = RT-qPCR panel, canonical junction mRNA, compound concentration having 50% response in CJ decrease, read-out: MYB IC50 (decrease in CJ mRNA levels)

Row | Structure (SMILES) | IC50 (SMN2) [nM] | IC50 (Target C) [nM] | IC50 (MYB [1]; [3]) [nM] | AC50 (MYB [1]; [4]) [nM] | IC50 (MYB [1]; [5]) [nM] | IC50 (MYB [2]) [nM] | IC50 (HTT) [nM]
1 | CN(c1ccc(-c2cc(F)c(-c3cn[nH]c3)c3cn[nH]c23)nn1)[C@@H]1C[C@H]2CC(F)(F)[C@@H](C1)N2 (stereo in doubt) [Compound 378, 6,6-difluoro-N-{6-[5-fluoro-4-(1H-pyrazol-4-yl)-1H-indazol-7-yl]pyridazin-3-yl}-N-methyl-8-azabicyclo[3.2.1]octan-3-amine] | < 100 | < 100 | 100 to 1000 | < 100 | 100 to 1000 | 100 to 1000 | < 100
2 | CN(c1ccc(-c2ccc(-c3cn[nH]c3)c3ncsc23)nn1)[C@@H]1C[C@H]2CC(F)(F)[C@@H](C1)N2 (stereo in doubt) [Compound 379, 6,6-difluoro-N-methyl-N-{6-[4-(1H-pyrazol-4-yl)-1,3-benzothiazol-7-yl]pyridazin-3-yl}-8-azabicyclo [3.2.1]octan-3-amine] | < 100 | 100 to 1000 | 100 to 1000 | 100 to 1000 | 100 to 1000 | 100 to 1000 | < 100
3 | CN(c1ccc(-c2ccc(-c3cn[nH]c3)c3cn[nH]c23)nn1)[C@@H]1C[C@H]2CC[C@@H](C1)N2 [Compound 104] | < 100 | 100 to 1000 | 1000 to 10000 | 1000 to 10000 | 1000 to 10000 | 100 to 1000 | < 100
4 | CN(c1ccc(-c2ccc(-n3cccn3)c3cn[nH]c23)nn1)[C@@H]1C[C@H]2CC[C@@H](C1)N2 [Compound 105] | < 100 | < 100 | < 100 | 100 to 1000 | < 100 | < 100 | < 100
5 | CN(c1ccc(-c2ccc(-c3cn[nH]c3)c3ncsc23)nn1)C1CC(C)(C)NC(C)(C)C1 [Compound 132] | < 100 | 100 to 1000 | 100 to 1000 | 1000 to 10000 | 100 to 1000 | 100 to 1000 | 100 to 1000
6 | CN(c1ccc(-c2ccc(-c3cn[nH]c3)c3cn[nH]c23)nn1)C1CC(C)(C)NC(C)(C)C1 [Compound 137] | 100 to 1000 | 100 to 1000 | 1000 to 10000 | 1000 to 10000 | 1000 to 10000 | 100 to 1000 | 100 to 1000
7 | CN(c1ccc(-c2ccc(-c3ccc(=O)n(C)c3)c3scnc23)nn1)C1CC(C)(C)NC(C)(C)C1 [Compound 178] | > 10000 | > 10000 | 1000 to 10000 | > 10000 | 1000 to 10000 | 1000 to 10000 | > 10000
8 | CC1(C)CC(Oc2ccc(-c3ccc(-c4cn[nH]c4)c4ncsc34)nn2)CCN1 (stereo not drawn) [Compound 182] | 100 to 1000 | 100 to 1000 | 1000 to 10000 | > 10000 | 1000 to 10000 | 100 to 1000 | < 100
9 | c1nc2c(-c3cn[nH]c3)ccc(-c3ccc(OC4CCNCC4)nn3)c2s1 [Compound 183] | 100 to 1000 | < 100 | 100 to 1000 | 100 to 1000 | 100 to 1000 | 100 to 1000 | < 100
10 | c1nc2c(-c3cn[nH]c3)ccc(-c3ccc(O[C@@H]4C[C@H]5CC[C@@H](C4)N5)nn3)c2s1 [Compound 184] | < 100 | 100 to 1000 | 100 to 1000 | < 100 | 100 to 1000 | 100 to 1000 | < 100
11 | CC1(C)CC(Nc2ccc(-c3ccc(-c4cn[nH]c4)c4ncsc34)nn2)CC(C)(C)N1 [Compound 186] | < 100 | < 100 | 100 to 1000 | > 10000 | 100 to 1000 | 100 to 1000 | < 100
12 | c1nc2c(-c3cn[nH]c3)ccc(-c3ccc(N[C@@H]4C[C@H]5CC[C@@H](C4)N5)nn3)c2s1 [Compound 202] | < 100 | 100 to 1000 | 100 to 1000 | 100 to 1000 | 100 to 1000 | 100 to 1000 | < 100
13 | CCN(c1ccc(C2=CC=C(c3cn[nH]c3)C3N=CSC23)nn1)[C@@H]1C[C@H]2CC[C@@H](C1)N2 (stereo partly drawn) [Compound 203] | < 100 | < 100 | 100 to 1000 | 100 to 1000 | 100 to 1000 | < 100 | < 100
14 | CN(c1ccc(-c2ccc(-c3cn[nH]c3)c3ncsc23)nn1)[C@H]1C[C@]2(C)CC[C@](C)(C1)N2 [Compound 204] | < 100 | < 100 | < 100 | 100 to 1000 | < 100 | < 100 | < 100
15 | [2H]C([2H])([2H])N(c1ccc(-c2ccc(-c3cn[nH]c3)c3ncsc23)nn1)[C@@H]1C[C@H]2CC[C@@H](C1)N2 [Compound 210] | < 100 | < 100 | < 100 | < 100 | < 100 | < 100 | < 100
16 | CN(c1ccc(-c2ccc(-c3cn[nH]c3)c3ncsc23)nn1)[C@@H]1C[C@H]2CC[C@@H](C1)N2 [Compound 213] | < 100 | < 100 | 100 to 1000 | 100 to 1000 | 100 to 1000 | < 100 | < 100
17 | c1nc2c(-c3cn[nH]c3)ccc(-c3ccc(N[C@@H]4C[C@H]5CCC[C@@H](C4)N5)nn3)c2s1 [Compound 215] | < 100 | < 100 | 100 to 1000 | < 100 | 100 to 1000 | < 100 | < 100
18 | Fc1cc(-c2ccc(O[C@@H]3C[C@H]4CC[C@@H](C3)N4)nn2)c2[nH]ncc2c1-c1cn[nH]c1 [Compound 216] | < 100 | 100 to 1000 | 100 to 1000 | < 100 | 100 to 1000 | < 100 | < 100
19 | CN(c1ccc(-c2ccc(-c3cn[nH]c3)c3ncsc23)nn1)[C@@H]1C[C@H]2CCC[C@@H](C1)N2 [Compound 226] | < 100 | < 100 | < 100 | < 100 | < 100 | < 100 | < 100
20 | [2H]C([2H])([2H])N(c1ccc(-c2ccc(-c3cn[nH]c3)c3ncsc23)nn1)[C@@H]1C[C@H]2CCC[C@@H](C1)N2 [Compound 227] | < 100 | < 100 | < 100 | < 100 | < 100 | < 100 | < 100
21 | CCN(c1ccc(-c2ccc(-c3cn[nH]c3)c3ncsc23)nn1)[C@@H]1C[C@H]2CCC[C@@H](C1)N2 [Compound 228] | < 100 | < 100 | 100 to 1000 | 100 to 1000 | 100 to 1000 | < 100 | < 100
